Non-standard residues stand in square brackets, D forms with d. Residues, ends and D or L forms follow the SMILES beside them. *: point of attachment. Cbz = O=C(OCc1ccccc1)*
Legend:
Cathepsin K [1] = target: T1, Cathepsin K (Homo sapiens, UniProt P43235); details: cited from earlier work
T1 sequence (P43235 115-329): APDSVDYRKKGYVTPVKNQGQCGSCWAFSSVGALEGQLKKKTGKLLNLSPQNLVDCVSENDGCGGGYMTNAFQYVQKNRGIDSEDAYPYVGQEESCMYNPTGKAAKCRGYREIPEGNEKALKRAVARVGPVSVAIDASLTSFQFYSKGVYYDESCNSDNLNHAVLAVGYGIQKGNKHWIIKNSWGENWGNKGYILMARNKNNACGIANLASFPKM

Cathepsin L [2] = target: Cathepsin L (Homo sapiens, UniProt P07711); details: cited from earlier work
Chain of Cathepsin L (P07711 114-333, species assumed): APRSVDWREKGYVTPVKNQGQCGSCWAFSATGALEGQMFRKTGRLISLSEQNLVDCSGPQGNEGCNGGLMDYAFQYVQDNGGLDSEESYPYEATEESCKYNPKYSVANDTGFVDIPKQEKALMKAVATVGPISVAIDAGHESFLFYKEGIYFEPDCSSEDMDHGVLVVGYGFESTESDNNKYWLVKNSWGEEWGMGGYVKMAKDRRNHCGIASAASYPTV

[3] = tested on: insulin like growth factor I receptor (IGF-IR); assay: IGF-IR levels in human preadipocytes, Western blot; format: cell-based
Protocol: FIG. 3. […] Cells were treated as in FIG. 2. Western blot analysis was performed using goat anti-human IGF-1R polyclonal antibodies.
(§1) Human preadipocytes were initially cultured in MSCGM medium (BioWhitaker) at 37° C. and 5% CO2 for 7 to 12 days with 3-4 changes of media till complete confluence. Non-induced cells were kept in adipogenesis maintenance media containing 0.01 mg/ml of insulin, 0.05 units/ml of penicillin, 0.05 μg/ml of streptomycin, and 10% fetal bovine serum. To induce adipogenesis, complete confluent cells were cultured in adipogenesis induction medium containing 1 μM dexamethasone, 0.2 mM indomethacin, 0.01 mg/ml insulin, 0.5 mM 3-isobutyl-1-methyl-xanthine, 0.05 units/ml of penicillin, 0.05 μg/ml of streptomycin, and 10% fetal bovine serum in the presence and absence of protease inhibitors for 3 days followed by three days of culture in maintenance media. After three cycles of induction and maintenance, cells were cultured in maintenance media for additional 7 days with two changes of fresh media.
(§2) After differentiation, cells were collected, and lysed into 1×RIPA buffer. Protein concentrations were determined using Bio-Rad Dc protein assay system according to the manufacturer (Bio-Rad, Hercules, Calif.). Equal amount of proteins were separated on 7% SDS-PAGE for detecting IR and IGF-1R, 12% SDS-PAGE for detecting cathepsins S, K, and L antigens. Both IR and IGF-1R primary polyclonal antibodies were raised from goat and all cathepsin antibodies were polyclonal antibodies raised from rabbit. The corresponding HRP-conjugated secondary antibodies were used for detections.
To test which cathepsin is involved in the IR turnover, human preadipocytes (BioWhittaker, Walkersville, Md.) were induced to become adipocytes in the presence and absence of inhibitors. Differentiated adipocytes expressed more IR than controls as previously reported. Pederson et al. (2000) Biochem. Biophys. Res. Commun. 276:162-168. Cathepsin B inhibitor (CA 074, 10 μM) and catepsin S inhibitor (CLIK 060, 2 μM) had no effect on either IR turnover or differentiation (FIGS. 2). […]

cathepsin L [4] = target: T2, cathepsin L (Mus musculus, UniProt P06797); assay: Cysteine protease active site labeling in mouse peritoneal macrophages: cathepsin L; format: cell-based
T2 construct: endogenous in cells; host or cells: thioglycolate-elicited mouse peritoneal macrophages
T2 sequence (P06797 114-334): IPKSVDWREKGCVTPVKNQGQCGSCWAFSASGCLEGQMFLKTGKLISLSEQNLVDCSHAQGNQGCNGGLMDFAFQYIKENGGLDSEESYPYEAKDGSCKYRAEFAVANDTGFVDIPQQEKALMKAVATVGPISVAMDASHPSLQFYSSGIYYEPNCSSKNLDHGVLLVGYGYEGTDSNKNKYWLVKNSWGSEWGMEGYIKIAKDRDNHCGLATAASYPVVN
Protocol: (§3) FIG. 1. Cysteine protease inhibition profile by synthetic inhibitors in mouse peritoneal macrophages. [^125I]-Z-Tyr-Ala-CHN2-labeled mouse peritoneal macrophages were lysed and separated onto 12% SDS-PAGE to visualize labeled active cathepsins. Doses and inhibitors used were all indicated.
(§4) Mouse peritoneal macrophages were generated by injecting mice with thioglycolate as described in Shi et al. (2000) J. Exp. Med. 191:[…]. After 3-4 days of incubation, peritoneal microphages were washed out using Tris-EDTA buffers containing 6 mM EDTA (pH 8.0). Cells were then seeded onto 24-well plates in DMEM with 10% FBS till complete spread. After cells were attached to the plates, different doses of inhibitors were added. After 2-3 hours of incubation, cells were labeled with [^125I]-Z-Tyr-Ala-CHN2 overnight at 37° C. to detect intracellular active cysteine proteases. Cells were lysed into 1× reducing protein sample buffer and separated onto 12% SDS-PAGE.
(§5) First, the synthetic small molecule compounds were tested for their selectivity toward different forms of cathepsin. Mouse peritoneal macrophages were cultured in the presence of selective inhibitors and cysteine protease active site labeling probe [^125I]-Z-Tyr-Ala-CHN2 (Sukhova et al., supra). […] In contrast, other inhibitors used had no effect on cathepsin B activity. […] Therefore, these inhibitors can be utilized to test if the aforementioned cathepsins play roles in the breakdown of insulin receptor (IR) or IR turnover.

cathepsin B = target: T3, cathepsin B (Mus musculus, UniProt P10605); assay: Cysteine protease active site labeling in mouse peritoneal macrophages: cathepsin B; format: cell-based
T3 construct: endogenous in cells; host or cells: thioglycolate-elicited mouse peritoneal macrophages
T3 sequence (P10605 80-333 limits assumed): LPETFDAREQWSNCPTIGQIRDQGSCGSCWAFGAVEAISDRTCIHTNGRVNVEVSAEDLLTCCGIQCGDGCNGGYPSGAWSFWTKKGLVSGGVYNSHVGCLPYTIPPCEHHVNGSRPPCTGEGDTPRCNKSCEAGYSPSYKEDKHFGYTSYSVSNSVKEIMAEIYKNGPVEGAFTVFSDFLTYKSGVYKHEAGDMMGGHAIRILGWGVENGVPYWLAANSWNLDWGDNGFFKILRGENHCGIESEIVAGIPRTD
Protocol: as §3, §4, §5

[5] = tested on: insulin receptor β subunit; assay: Insulin receptor turnover in human preadipocytes, Western blot; format: cell-based; details: for IR turnover: human preadipocytes induced to adipocytes
Protocol: FIG. 2. […] Human preadipocytes were incubated with and without inhibitors indicated at different doses, lysed, separated onto 7% SDS-PAGE, and probed with goat anti-human insulin receptor β-subunit polyclonal antibodies. Both mature β subunit and its precursor were indicated.
as §1, §2
To test which cathepsin is involved in the IR turnover, human preadipocytes (BioWhittaker, Walkersville, Md.) were induced to become adipocytes in the presence and absence of inhibitors. Differentiated adipocytes expressed more IR than controls as previously reported. Pederson et al. (2000) Biochem. Biophys. Res. Commun. 276:162-168. Cathepsin B inhibitor (CA 074, 10 μM) and catepsin S inhibitor (CLIK 060, 2 μM) had no effect on either IR turnover or differentiation (FIGS. 2). […] The same is true when the blot was tested with insulin like growth factor I receptor (IGF-IR) antibodies (FIG. 3).

[6] = tested on: peroxisome proliferator-activated receptor-γ (PPAR-γ); assay: PPAR-γ levels in human preadipocytes, Western blot; format: cell-based; details: human preadipocytes differentiated with inhibitor, FIG. 5
Protocol: FIG. 5. Inhibition of cathepsin L blocked the expression of PPAR-γ. Human preadipocytes were used and Western blot analysis was performed as in FIG. 4 instead of using mouse anti-human PPAR-γ monoclonal antibodies as the primary antibodies.
as §1
(§6) To evaluate the cell differentiation levels affected by aforementioned inhibitors, the levels of transcription factors CCAAT/enhancer-binding protein-α (C/EBP-α) as well as peroxisome proliferator-activated receptor-γ (PPAR-γ) from cells treated with and without inhibitors were measured. Both C/EBP-α and PPAR-γ are important adipocyte determination factors. Wu et al. (1999) Mol. Cell. 3:151-158; Tanaka et al. (1997) EMBO J. 16:7432-7443; and Tontonoz et al. (1994) Cell 79:1147-1156.

human preadipocytes = assay: Human preadipocyte adipogenesis, oil-red staining; format: cell-based; details: for inhibition of adipogenesis / differentiation: 10 μM; for inhibition of adipogenesis / differentiation / effect on adipogenesis: human preadipocytes
Protocol: FIG. 6. Oil-red staining of human preadipocytes and adipocytes.
as §1
This hypothesis is further confirmed by oil-red staining of CLIK 148 or 195 treated preadipocytes (FIG. 6). In addition, inhibition of adiogenesis by these two inhibitors is dose dependent. Less than 50% of adipogenesis was blocked by 1 μM of such inhibitors. […] In contrast, 1 μM of CLIK 060, 1 or 10 μM of CA 074 had no effect on adipogenesis (data not shown). Therefore, these observations indicate that cathepsin L appears to play a more critical role than cathepsins S and K in adipogenesis by controlling insulin/IR complex turnover.

cathepsin K [7] = target: T4, cathepsin K (Mus musculus, UniProt P55097); assay: Cysteine protease active site labeling in mouse peritoneal macrophages: cathepsin K; format: cell-based
T4 construct: endogenous in cells; host or cells: thioglycolate-elicited mouse peritoneal macrophages
T4 sequence (P55097 115-329): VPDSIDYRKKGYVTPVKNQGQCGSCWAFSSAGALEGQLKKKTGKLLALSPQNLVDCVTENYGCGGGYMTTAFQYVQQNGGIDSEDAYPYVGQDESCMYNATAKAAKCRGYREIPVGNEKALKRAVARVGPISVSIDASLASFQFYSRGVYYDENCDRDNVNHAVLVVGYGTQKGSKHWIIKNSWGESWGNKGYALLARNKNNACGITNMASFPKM
Protocol: as §3, §4, §5

[8] = tested on: CCAAT/enhancer-binding protein-α (C/EBP-α); assay: C/EBP-α levels in human preadipocytes, Western blot; format: cell-based; details: human preadipocytes differentiated with inhibitor, FIG. 4
Protocol: FIG. 4. Inhibition of cathepsin L blocked the expression of CCAAT/enhancer-binding protein. Human preadipocytes were differentiated as in FIG. 2. A 10% gel was used to perform Western blot analysis using goat anti-human C/EBP-α polyclonal antibodies and the blot was detected using the corresponding HRP-conjugated secondary antibodies.
as §1, §6

cathepsin S = cathepsin S (Mus musculus, UniProt O70370); assay: Cysteine protease active site labeling in mouse peritoneal macrophages: cathepsin S; format: cell-based; parameters: endogenous in cells; host or cells: thioglycolate-elicited mouse peritoneal macrophages
Protocol: as §3, §4
First, the synthetic small molecule compounds were tested for their selectivity toward different forms of cathepsin. Mouse peritoneal macrophages were cultured in the presence of selective inhibitors and cysteine protease active site labeling probe [^125I]-Z-Tyr-Ala-CHN2 (Sukhova et al., supra). […] In contrast, other inhibitors used had no effect on cathepsin B activity. […]

In the case of `O=C(N[C@@H](Cc1ccc2ccccc2c1)C(=O)N[C@H]1CCCN(S(=O)(=O)c2ccccn2)CC1=O)c1cccc2cccnc12`, the Ki (Cathepsin K [1]) is given as 420 to 503 nM.
In the case of `O=C(N[C@@H](Cc1ccc2ccccc2c1)C(=O)N[C@H]1CCCN(S(=O)(=O)c2ccccn2)CC1=O)c1cccc2ccccc12`, the Ki (Cathepsin K [1]) is listed as 420 to 503 nM.
For `O=C[C@@H](Cc1ccc(O)cc1)NC(=O)[C@H](Cc1ccccc1)NC(=O)OCc1ccccc1` (Cbz-Phe-[dY]-aldehyde), the “Cathepsin L selectivity, in words” value (Cathepsin L [2]) is given as “Cathepsin L. Selective (Woo et al. Bioorg. Med. Chem. 5, 1501, 1995)”.
In the case of `CN(C)C(=O)[C@H](Cc1ccccc1)NC(=O)[C@H]1O[C@@H]1C(=O)N[C@@H](Cc1ccccc1)C(=O)N(C)C` (relative stereo) [CLIK 195, L-(+)-(2S, 3S)-Bis-(Na-amino-L-phenylalaninedimethylamide)-trans-epoxysuccinamide], the “levels of IGF-IR β subunit and its precursor (the same as for IR)” value ([3]; 10 μM) is reported as “increased levels”, the “cathepsin L activity (active site labeling)” value (from here on “cathepsin L activity”) (cathepsin L [4]; 10 μM, mouse peritoneal macrophages) is reported as “completely inhibited” and the “cathepsin B activity (active site labeling)” value (cathepsin B; 10 μM) is reported as “not”. For the same compound, the “levels of 95 kDa IR β subunit and its precursor” value ([5]; 10 μM, human preadipocytes) was “increased levels”, the “accumulation of 50 kDa PPAR-γ” value [6] was “blocking the accumulation” and the “inhibition of adipogenesis / differentiation” value (human preadipocytes) was “complete inhibition”. For the same compound, the “inhibition of adipogenesis / differentiation” value (human preadipocytes; listed as 195) was “completely blocked”, the “cathepsin K activity (active site labeling)” value (cathepsin K [7]; 10 μM) was “not” and the “accumulation of 50 kDa C/EBP-α” value [8] was “blocking the accumulation”.
With `CN(C)C(=O)[C@H](Cc1ccccc1)NC(=O)C1OC1C(=O)NC(CCCCN)C(=O)Nc1ccccc1.Cl` (stereo in doubt) [CLIK 060, N-{L-3-trans[(1-phenylcarbamoyl-5-amino)pentylcarbamoyl]oxirane-2-carbonyl}-L-phenylalaninoldimethylamide hydrochloride] the “cathepsin L activity” value (cathepsin L [4]; 2-10 μM, mouse peritoneal macrophages) was “affected at some level”, the “cathepsin L activity” value (cathepsin L [4]; 10-15 μM, FIG. 1) was “blocked” and the IR turnover ([5]; 2 μM) was “no effect”. The IR accumulation ([5]; 10-15 μM, human preadipocytes) was “IR accumulation”, the effect on adipogenesis (human preadipocytes; 1 μM) was “no effect” and the “differentiation of human preadipocytes” value (human preadipocytes; 2 μM) was “no effect”. For the same compound, the effect on adipogenesis (human preadipocytes; 10-15 μM (higher concentrations)) was “adipogenesis inhibition” and the “cathepsin S activity (active site labeling)” value (cathepsin S; 2-10 μM) was “significantly inhibited”.
In the case of `CCCNC(=O)[C@H]1O[C@@H]1C(=O)N[C@H](C(=O)N1CCC[C@H]1C(=O)O)[C@@H](C)CC` [CA 074], the “cathepsin L activity” value (cathepsin L [4]; 2 μM, mouse peritoneal macrophages) is reported as “remain intact”, the “cathepsin B activity (active site labeling)” value (cathepsin B; 2 μM) is reported as “completely blocked” and the IR turnover ([5]; 10 μM) is reported as “no effect”. The effect on adipogenesis (human preadipocytes; 1 μM) was “no effect”, the “inhibition of adipogenesis / differentiation” value (human preadipocytes) was “no effect” and the effect on adipogenesis (human preadipocytes; 10-20 μM) was “no effect”. The “cathepsin S activity (active site labeling)” value (cathepsin S; 2 μM) was “remain intact” and the “cathepsin K activity (active site labeling)” value (cathepsin K [7]; 2 μM) was “remain intact”.
In the case of `CCOC(=O)[C@H]1O[C@@H]1C(=O)N[C@@H](CC(C)C)C(=O)NCCC(C)C` [E64d], the “levels of IGF-IR β subunit and its precursor (the same as for IR)” value ([3]; 20 μM) is reported as “increased levels”, the “levels of 95 kDa IR β subunit and its precursor” value ([5]; 20 μM, human preadipocytes) is reported as “increased levels” and the “accumulation of 50 kDa PPAR-γ” value [6] is reported as “blocking the accumulation”. For the same compound, the “accumulation of 50 kDa C/EBP-α” value [8] was “blocking the accumulation”.
